Measurements taken from the supplement of paper PMC10307832.

Assays:
Assay in all cases: relative viability (nuclei count vs DMSO), 5 days (fraction); higher = more cells survive
[1] = compound: CC1(C)CCC(CN2CCN(c3ccc(C(=O)NS(=O)(=O)c4ccc(NCC5CCOCC5)c([N+](=O)[O-])c4)c(Oc4cnc5[nH]ccc5c4)c3)CC2)=C(c2ccc(Cl)cc2)C1 [Venetoclax] + CS(=O)(=O)CCNCc1ccc(-c2ccc3ncnc(Nc4ccc(OCc5cccc(F)c5)c(Cl)c4)c3c2)o1 [Lapatinib] (partner 2 µM)
Method in brief: (§1)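 Relative viability is defined as nuclei in treated wells over nuclei in vehicle wells. Duplicate plates were run and medians reported. Lung cancer cell lines in 1536-well plates were dosed by pin tool one day after seeding, with one drug or with a fixed anchor-drug dose plus five library-drug doses (not always all listed) in √10 steps, and nuclei were counted after 5 days.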

[2] = compound: Cn1cnc2c(F)c(Nc3ccc(Br)cc3Cl)c(C(=O)NOCCO)cc21 [Selumetinib] + CC(=O)c1c(C)c2cnc(Nc3ccc(N4CCNCC4)cn3)nc2n(C2CCCC2)c1=O [Palbociclib] (partner 0.5 µM)
Method in brief: as §1

[3] = compound: Cn1cnc2c(F)c(Nc3ccc(Br)cc3Cl)c(C(=O)NOCCO)cc21 [Selumetinib] + CCNC(=O)c1noc(-c2cc(C(C)C)c(O)cc2O)c1-c1ccc(CN2CCOCC2)cc1 [Luminespib] (partner 0.01 µM)
Method in brief: as §1

[4] = compound: Cn1cnc2c(F)c(Nc3ccc(Br)cc3Cl)c(C(=O)NOCCO)cc21 [Selumetinib] + N=C(N)NC(=N)NCCc1ccccc1 [Phenformin] (partner 250 µM)
Method in brief: as §1

Cell Line | relative viability ([1]; first compound 0.01 µM) | relative viability ([1]; first compound 0.03162 µM) | relative viability ([1]; first compound 0.1 µM) | relative viability ([1]; first compound 0.3162 µM) | relative viability ([1]; first compound 1 µM) | relative viability ([2]; first compound 0.02 µM) | relative viability ([2]; first compound 0.06325 µM) | relative viability ([2]; first compound 0.2 µM) | relative viability ([2]; first compound 0.6325 µM) | relative viability ([3]; first compound 0.02 µM) | relative viability ([3]; first compound 0.06325 µM) | relative viability ([3]; first compound 0.2 µM) | relative viability ([3]; first compound 0.6325 µM) | relative viability ([4]; first compound 0.02 µM) | relative viability ([4]; first compound 0.2 µM) | relative viability ([4]; first compound 0.6325 µM) | relative viability ([4]; first compound 0.06325 µM)
NCI-H1792 | 0.933 | 0.946 | 0.869 | 0.916 | 0.803 | 0.646 | 0.566 | 0.46 | 0.4 | 0.387 | 0.408 | 0.379 | 0.313 | 0.192 | 0.144 | 0.229 | –
LXF-289 | 0.956 | 0.925 | 0.874 | 0.906 | 0.809 | 0.554 | 0.529 | 0.468 | 0.468 | 0.692 | 0.688 | 0.491 | 0.544 | 0.52 | 0.442 | 0.434 | 0.501
NCI-H2347 | 0.948 | 0.949 | 0.983 | 0.872 | 0.922 | 0.401 | 0.435 | 0.388 | 0.361 | 0.431 | 0.287 | 0.272 | 0.332 | 0.401 | 0.187 | 0.283 | 0.256
RERF-LC-KJ | 0.813 | 0.844 | 0.838 | 0.832 | 0.832 | 1.03 | 0.946 | 0.84 | 0.908 | 1.32 | 0.924 | 1.06 | 0.987 | 0.368 | 0.422 | 0.395 | 0.388
NCI-H1650 | 0.764 | 0.873 | – | 1.01 | 0.81 | 0.312 | 0.26 | 0.357 | 0.27 | 0.194 | 0.2 | 0.198 | 0.202 | 0.424 | 0.444 | 0.35 | 0.371
NCI-H1734 | 1.1 | 0.993 | 0.925 | 0.921 | 1.07 | 0.304 | 0.332 | 0.36 | 0.313 | 0.195 | 0.176 | 0.17 | 0.152 | 0.351 | 0.345 | 0.248 | 0.298
NCI-H1915 | 0.966 | 0.935 | 0.918 | 0.926 | 0.9 | 0.491 | 0.366 | 0.33 | 0.228 | 0.887 | 0.744 | 0.587 | 0.373 | 0.423 | 0.271 | 0.284 | 0.371
NCI-H838 | 0.977 | 1.07 | 0.962 | 0.978 | 0.891 | 0.206 | 0.191 | 0.201 | 0.203 | 0.369 | 0.331 | 0.207 | 0.259 | 0.502 | 0.505 | 0.474 | 0.481
HCC-15 | 0.887 | 0.855 | 0.774 | 0.796 | 0.774 | 0.564 | 0.537 | 0.355 | 0.253 | 0.199 | 0.19 | 0.158 | 0.0809 | 0.37 | 0.231 | 0.185 | 0.284
NCI-H650 | 0.726 | 0.86 | – | 0.963 | 0.882 | 0.395 | 0.571 | 0.516 | 0.521 | 0.836 | 0.677 | 0.73 | 0.651 | 0.521 | 0.551 | 0.54 | 0.407
NCI-H1651 | 0.92 | 0.885 | 0.747 | 0.905 | 0.764 | 0.512 | 0.501 | 0.475 | 0.489 | 0.757 | 0.828 | 0.835 | 0.615 | 0.329 | 0.281 | 0.298 | 0.264
NCI-H2405 | 1.07 | 1.08 | – | 1.01 | 1 | 0.485 | 0.434 | 0.395 | 0.344 | 0.603 | 0.597 | 0.426 | 0.327 | 0.344 | 0.296 | 0.164 | 0.319
LU99A | 0.865 | 1 | 0.884 | 0.885 | 0.986 | 0.427 | 0.418 | 0.375 | 0.425 | 0.246 | 0.259 | 0.202 | 0.201 | 0.905 | 0.85 | 0.835 | 0.799
H3255 | 0.268 | 0.263 | 0.195 | 0.282 | 0.319 | 0.318 | 0.353 | 0.339 | 0.339 | 1.04 | 0.918 | 1.05 | 0.87 | 0.385 | 0.332 | 0.318 | 0.367
NCI-H1993 | 0.783 | 0.861 | 0.796 | 0.733 | 0.813 | 0.592 | 0.557 | 0.527 | 0.427 | 0.786 | 0.776 | 0.695 | 0.569 | 0.506 | 0.466 | 0.551 | 0.569
NCI-H322M | 0.659 | 0.601 | 0.552 | 0.533 | 0.57 | 0.403 | 0.413 | 0.459 | 0.448 | 0.739 | 0.547 | 0.572 | 0.481 | 0.668 | 0.57 | 0.574 | 0.561
NCI-H460 | 0.971 | 0.974 | 0.994 | 0.935 | 0.866 | 0.147 | 0.142 | 0.0907 | 0.0517 | 0.0285 | 0.0384 | 0.041 | 0.0306 | 0.479 | 0.309 | 0.176 | 0.397
NCI-H2170 | 0.255 | 0.29 | 0.255 | 0.254 | 0.268 | 0.406 | 0.43 | 0.414 | 0.414 | 0.358 | 0.845 | 0.651 | 0.617 | 0.408 | 0.386 | 0.326 | 0.395
NCI-H1395 | 1.37 | 1.09 | 0.958 | 1.09 | 0.964 | 0.561 | 0.558 | 0.574 | 0.54 | 0.575 | 0.713 | 0.643 | 0.694 | 0.447 | 0.456 | 0.475 | 0.42
